Data reported in the SangsterLogP compilation.

Assay: method code SF-AS, from DOI: 10.1248/cpb.39.1736, PMID: 1777927

Question: For CCOc1ccc2cc(O)c(O)cc2c1, which logP is on record?
Answer: The logP was 2.7.

Question: For CCCCc1ccc(O)c(O)c1, which logP is on record?
Answer: Its logP is 2.96.

Question: For COc1ccc(CCNC(=O)/C=C/c2ccc(O)c(O)c2)cc1OC, which logP is on record?
Answer: Its logP is 2.07.

Question: Which logP does the source give for COc1ccc(CNC(=O)C=Cc2ccc(O)c(O)c2)cc1OC here?
Answer: Its logP is 1.99.

Question: With O=C(/C=C/c1ccc(O)c(O)c1)CCCCCO as the compound, how does the logP read?
Answer: The logP was 1.67.

Question: For CCCCOC(=O)/C=C/c1ccc(O)c(O)c1, which logP is on record?
Answer: The logP was 3.53.

Question: With CCCCCC(O)c1ccc(O)c(O)c1 (stereo not drawn) as the compound, how does the logP read?
Answer: Its logP is 2.32.

Question: With CCCCC=Cc1ccc(O)c(O)c1 as the compound, how does the logP read?
Answer: Its logP is 3.82.

Question: Which logP does the source give for CCCC(=O)C=Cc1ccc(O)c(O)c1 here?
Answer: The logP was 2.61.

Question: With COc1ccc(NC(=O)/C=C/c2ccc(O)c(O)c2)cc1OC as the compound, how does the logP read?
Answer: The logP was 2.3.

Question: Which logP does the source give for CC(=O)c1ccc2cc(O)c(O)cc2c1 here?
Answer: The logP was 2.32.

Question: For CCCCCCNC(=O)c1ccc(O)c(O)c1, which logP is on record?
Answer: Its logP is 2.71.

Question: With O=C(/C=C/c1ccc(O)c(O)c1)NCc1ccccc1 as the compound, how does the logP read?
Answer: Its logP is 2.48.

Question: For CCCCCCNC(=O)C=Cc1ccc(O)c(O)c1, which logP is on record?
Answer: Its logP is 3.37.

Question: For O=C(/C=C/c1ccc(O)c(O)c1)NCCc1ccccc1, which logP is on record?
Answer: The logP was 2.72.

Question: Which logP does the source give for CCc1ccc2cc(O)c(O)cc2c1 here?
Answer: The logP was 3.25.

Question: For CCCCCCNC(=O)/C=C/Oc1ccc(O)c(O)c1, which logP is on record?
Answer: Its logP is 3.36.

Question: Which logP does the source give for CCCCNC(=O)c1ccc2cc(O)c(O)cc2c1 here?
Answer: Its logP is 2.72.
